Literature values in patent US12400737B2, “Methods of classifying diffuse large B-cell lymphoma” (CELGENE CORPORATION, priority 2018, dated 2025).

Assays:
[1] = test system: diffuse large B-cell lymphoma (DLBCL); conditions: background statement
[2] = test system: acute myeloid leukemia (AML); conditions: administered alone

Compound | single-agent activity in DLBCL [1] | response in treating AML at relapse [2]
Nc1cccc2c1CN(C1CCC(=O)NC1=O)C2=O (centres unmarked) [lenalidomide, 3-(4-amino-1-oxo-1,3-dihydro-isoindol-2-yl)-piperidine-2,6-dione] | significant single-agent activity | 
CT-011: anti-PD-1 antibody, a humanized antibody |  | failed to show response
